Numbers after ± are expanded uncertainties.
Tests used:
[1] = xn = mol fraction of the nth substance listed; settings: 298.15 K, 101.33 kPa, Liquid
[2] = excess molar enthalpy (molar enthalpy of mixing); xn = mol fraction of the nth substance listed; settings: 298.15 K, 101.33 kPa, Liquid
[3] = 298.15 K; 101.33 kPa; Liquid

COC(F)(F)C(F)(F)C(F)(F)C(F)(F)F [1-methoxy-nonafluorobutane] + COCCO
Settings | excess molar enthalpy, [2] [kcal/mol] | mass density, [1] [kg/m3]
x1 = 0.00553 | – | 965.99 ± 0.23
x1 = 0.01007 | – | 970.85 ± 0.23
x1 = 0.02663 | – | 988.18 ± 0.19
x1 = 0.02992 | – | 991.62 ± 0.19
x1 = 0.03967 | – | 1001.54 ± 0.18
x1 = 0.04976 | – | 1011.78 ± 0.2
x1 = 0.05 | 0.0487 ± 0.00112 | –
x1 = 0.05995 | – | 1021.9 ± 0.22
x1 = 0.06979 | – | 1031.53 ± 0.24
x1 = 0.07991 | – | 1041.28 ± 0.26
x1 = 0.08992 | – | 1050.63 ± 0.28
x1 = 0.09992 | – | 1059.88 ± 0.3
x1 = 0.1 | 0.0727 ± 0.00151 | –
x1 = 0.1999 | – | 1144.03 ± 0.48
x1 = 0.2 | 0.1 ± 0.00191 | –
x1 = 0.2999 | – | 1215.05 ± 0.63
x1 = 0.3 | 0.119 ± 0.0022 | –
x1 = 0.4 | – | 1275.68 ± 0.75
x1 = 0.4001 | 0.133 ± 0.00239 | –
x1 = 0.5 | 0.144 ± 0.00263 | –
x1 = 0.5001 | – | 1328.23 ± 0.86
x1 = 0.5501 | 0.149 ± 0.00263 | –
x1 = 0.5997 | – | 1373.83 ± 0.93
x1 = 0.6001 | 0.154 ± 0.00263 | –
x1 = 0.6501 | 0.153 ± 0.00263 | –
x1 = 0.7001 | 0.153 ± 0.00263 | 1414.55 ± 1
x1 = 0.75 | 0.151 ± 0.00263 | –
x1 = 0.8001 | 0.146 ± 0.00263 | –
x1 = 0.8005 | – | 1451 ± 1.1
x1 = 0.85 | 0.137 ± 0.00239 | –
x1 = 0.8997 | – | 1483.83 ± 1.1
x1 = 0.9 | 0.121 ± 0.00225 | –
x1 = 0.9106 | – | 1487.37 ± 1.1
x1 = 0.9204 | – | 1490.55 ± 1.1
x1 = 0.9304 | – | 1493.65 ± 1.2
x1 = 0.9403 | – | 1496.79 ± 1.2
x1 = 0.95 | 0.0872 ± 0.00172 | –
x1 = 0.9508 | – | 1500.13 ± 1.2
x1 = 0.9604 | – | 1503.16 ± 1.2
x1 = 0.971 | – | 1506.5 ± 1.2
x1 = 0.975 | 0.0582 ± 0.00127 | –
x1 = 0.98 | – | 1509.57 ± 1.2
x1 = 0.99 | – | 1512.86 ± 1.2
x1 = 0.9948 | – | 1514.59 ± 1.2
x1 = 1 | – | 1516.5 ± 1.2

COC(F)(F)C(F)(F)C(F)(F)C(F)(F)F [1-methoxy-nonafluorobutane] + COCCOCCO
Settings | mass density [kg/m3]
[1], x1 = 1 | 1516.5 ± 1.2

COC(F)(F)C(F)(F)C(F)(F)C(F)(F)F [1-methoxy-nonafluorobutane] + COCCOCCOC
Settings | excess molar enthalpy [kcal/mol] | mass density [kg/m3]
[1], x1 = 0.02464 | – | 954.08 ± 0.26
[1], x1 = 0.0497 | – | 969.75 ± 0.23
[1], x1 = 0.1001 | – | 1001.04 ± 0.18
[1], x1 = 0.1498 | – | 1031.72 ± 0.25
[1], x1 = 0.1998 | – | 1062.36 ± 0.32
[1], x1 = 0.2496 | – | 1092.61 ± 0.38
[1], x1 = 0.2994 | – | 1122.54 ± 0.45
[1], x1 = 0.3493 | – | 1152.22 ± 0.51
[1], x1 = 0.3998 | – | 1181.93 ± 0.58
[1], x1 = 0.4496 | – | 1210.92 ± 0.64
[1], x1 = 0.4998 | – | 1239.78 ± 0.71
[1], x1 = 0.5495 | – | 1268.27 ± 0.75
[1], x1 = 0.5999 | – | 1296.83 ± 0.8
[1], x1 = 0.6499 | – | 1324.79 ± 0.84
[1], x1 = 0.6993 | – | 1352.36 ± 0.89
[1], x1 = 0.7495 | – | 1380.12 ± 0.94
[1], x1 = 0.7996 | – | 1407.65 ± 0.99
[1], x1 = 0.8498 | – | 1435.09 ± 1.1
[1], x1 = 0.8997 | – | 1462.11 ± 1.1
[1], x1 = 0.9498 | – | 1489.22 ± 1.1
[1], x1 = 0.9749 | – | 1502.87 ± 1.2
[1], x1 = 1 | – | 1516.5 ± 1.2
[2], x1 = 0.05001 | 0.0399 ± 0.00098 | –
[2], x1 = 0.1 | 0.066 ± 0.00139 | –
[2], x1 = 0.15 | 0.081 ± 0.00163 | –
[2], x1 = 0.2 | 0.0883 ± 0.00174 | –
[2], x1 = 0.25 | 0.0919 ± 0.00179 | –
[2], x1 = 0.3 | 0.0915 ± 0.00179 | –
[2], x1 = 0.35 | 0.0883 ± 0.00174 | –
[2], x1 = 0.4001 | 0.0839 ± 0.00167 | –
[2], x1 = 0.5001 | 0.0705 ± 0.00146 | –
[2], x1 = 0.6001 | 0.0546 ± 0.00122 | –
[2], x1 = 0.7 | 0.038 ± 0.000956 | –
[2], x1 = 0.8 | 0.022 ± 0.000717 | –
[2], x1 = 0.9 | 0.00844 ± 0.000502 | –
[2], x1 = 0.95 | 0.00265 ± 0.000406 | –

COCCOCCOC [2,5,8-trioxanonane]
Settings | mass density [kg/m3]
[3] | 938.62 ± 0.29

COCCOCCOC [2,5,8-trioxanonane] + COC(F)(F)C(F)(F)C(F)(F)C(F)(F)F
Settings | mass density [kg/m3]
[1], x2 = 0 | 938.62 ± 0.29

COCCOCCO [2-(2-methoxyethoxy)ethanol]
Settings | mass density [kg/m3]
[3] | 1015.6 ± 0.22

COCCOCCO [2-(2-methoxyethoxy)ethanol] + COC(F)(F)C(F)(F)C(F)(F)C(F)(F)F
Settings | excess molar enthalpy, [2] [kcal/mol] | mass density, [1] [kg/m3]
x2 = 0 | – | 1015.6 ± 0.22
x2 = 0.02479 | – | 1031.94 ± 0.25
x2 = 0.04975 | – | 1048.37 ± 0.28
x2 = 0.05006 | 0.0519 ± 0.00117 | –
x2 = 0.09963 | – | 1080.8 ± 0.35
x2 = 0.1001 | 0.0713 ± 0.00148 | –
x2 = 0.1498 | – | 1112.38 ± 0.41
x2 = 0.1999 | – | 1142.86 ± 0.48
x2 = 0.2002 | 0.0873 ± 0.00172 | –
x2 = 0.2495 | – | 1172.17 ± 0.54
x2 = 0.2996 | – | 1200.75 ± 0.6
x2 = 0.3003 | 0.0967 ± 0.00186 | –
x2 = 0.3996 | – | 1254.72 ± 0.71
x2 = 0.4003 | 0.102 ± 0.00194 | –
x2 = 0.4503 | 0.103 ± 0.00196 | –
x2 = 0.4994 | – | 1304.76 ± 0.82
x2 = 0.5003 | 0.103 ± 0.00196 | –
x2 = 0.5503 | 0.103 ± 0.00198 | –
x2 = 0.5984 | – | 1351.61 ± 0.89
x2 = 0.6003 | 0.103 ± 0.00196 | –
x2 = 0.6503 | 0.102 ± 0.00196 | –
x2 = 0.699 | – | 1396.09 ± 0.97
x2 = 0.7003 | 0.101 ± 0.00194 | –
x2 = 0.7499 | – | 1417.68 ± 1
x2 = 0.7998 | – | 1438.09 ± 1.1
x2 = 0.8002 | 0.0953 ± 0.00184 | –
x2 = 0.85 | – | 1458.09 ± 1.1
x2 = 0.8999 | – | 1477.55 ± 1.1
x2 = 0.9001 | 0.0773 ± 0.00158 | –
x2 = 0.9501 | 0.055 ± 0.00122 | 1496.84 ± 1.2
x2 = 0.9749 | – | 1506.46 ± 1.2

CCCCOCCO [2-butoxyethan-1-ol]
Settings | mass density [kg/m3]
[3] | 896.25 ± 0.37

CCCCOCCO [2-butoxyethan-1-ol] + COC(F)(F)C(F)(F)C(F)(F)C(F)(F)F
Settings | mass density [kg/m3]
[1], x2 = 0 | 896.25 ± 0.37

CCOCCO [2-ethoxyethan-1-ol]
Settings | mass density [kg/m3]
[3] | 924.92 ± 0.32

CCOCCO [2-ethoxyethan-1-ol] + COC(F)(F)C(F)(F)C(F)(F)C(F)(F)F
Settings | mass density [kg/m3]
[1], x2 = 0 | 924.92 ± 0.32

COCCO [2-methoxyethan-1-ol]
Settings | mass density [kg/m3]
[3] | 960.01 ± 0.25

COCCO [2-methoxyethan-1-ol] + COC(F)(F)C(F)(F)C(F)(F)C(F)(F)F
Settings | mass density [kg/m3]
[1], x2 = 0 | 960.01 ± 0.25

From the NIST ThermoML archive (doi:10.1016/j.jct.2005.02.011)
